The values below are quoted from earlier work in US11441198B2 (priority 2016, dated 2022).

Structures are written as SMILES.

One data set deals with influenza virus. As to conditions: double-blind randomized placebo-controlled trial.

Regarding `CC(=O)Oc1ccccc1C(=O)Nc1ncc([N+](=O)[O-])s1` [Nitazoxanide], the symptoms result with influenza virus was “associated with improvement in symptoms”. Take `COc1c(C)c2c(c(O)c1C/C=C(\C)CCC(=O)O)C(=O)OC2` [mycophenolic acid]: the “antiviral activity against influenza viruses” value in the data set on influenza viruses is listed as “has antiviral activity”.
